From ChEMBL document CHEMBL1201862, “PubChem BioAssay data set” (2004)
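Each compound was tested at five concentrations against cells in 96-well plates for 48 hours. Here, GI50 denotes the concentration required for 50% inhibition of growth.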 Calls of active or inactive are those of the source. No stated cut-off is given here; in the data, active = GI50 up to about 1.1 µM and inactive = higher.

Assays:
Assay in all cases: NCI anticancer screen, dose series, 48 h
[1] = test system: SK-MEL-5
[2] = test system: CAKI-1
[3] = test system: SK-MEL-2
[4] = test system: U-251
[5] = test system: UACC-62
[6] = test system: DMS-273
[7] = test system: NCI-H460
[8] = test system: OVCAR-8
[9] = test system: NCI-H522
[10] = test system: OVCAR-5
[11] = test system: M14
[12] = test system: HOP-62
[13] = test system: UO-31
[14] = test system: DMS-114
[15] = test system: OVCAR-3
[16] = test system: SF-295
[17] = test system: MOLT-4
[18] = test system: SNB-19
[19] = test system: EKVX
[20] = test system: HCT-116

Measured: GI50

C=CCN1C(=O)NC(=O)/C(=C/c2c3ccccc3cc3ccccc23)C1=O
inactive: [1] > 10 µM | [2] 19.5 µM | [3] 19.6 µM | [4] 16.7 µM | [5] 18 µM | [6] 20.8 µM | [7] 19.1 µM | [8] 22.4 µM | [9] 20.2 µM | [10] 20.5 µM | [11] 16.2 µM | [12] 17.3 µM | [13] 20.6 µM | [14] 19.1 µM | [15] 18.9 µM | [16] 17.4 µM | [17] 17.9 µM | [18] 21.8 µM | [19] 25.5 µM | [20] 17.1 µM

CN1Cc2ccccc2C2(COc3ccccc3C2=O)C1 (stereo not given)
inactive: [1] 56.2 µM | [2] > 100 µM | [3] > 100 µM | [4] > 100 µM | [5] > 100 µM | [6] > 100 µM | [7] > 100 µM | [8] > 100 µM | [9] 98.2 µM | [10] > 100 µM | [11] > 100 µM | [12] > 100 µM | [13] 57.4 µM | [14] > 100 µM | [15] 77.8 µM | [16] > 100 µM | [17] 40.8 µM | [18] > 100 µM | [19] > 100 µM | [20] > 100 µM

CC1=C(Cl)C=CP(=O)(Oc2ccccc2)C1 (stereo not given)
inactive: [1] 55.6 µM | [2] > 100 µM | [3] 41.3 µM | [4] > 100 µM | [5] 43.2 µM | [6] 27.5 µM | [7] 32.6 µM | [8] 23.3 µM | [9] 15.6 µM | [10] > 100 µM | [11] 19.1 µM | [12] > 100 µM | [13] 38.3 µM | [14] 25.4 µM | [15] > 100 µM | [16] > 100 µM | [17] > 10 µM | [18] > 100 µM | [19] > 100 µM | [20] 30.8 µM
